Assay results taken from patent US20200276211A1, “COMPOUNDS FOR TREATING NEAR VISION DISORDERS” (VIEWPOINT THERAPEUTICS, INC., priority 2017, published 2020).
Where two headings read alike, the source gives them in different places.

Assays:
[1] = target: T1, recombinant alpha-crystallin core domain (ACD) of cryAB protein (residues 68-153) (Homo sapiens, UniProt P02511); assay: Differential scanning fluorimetry (DSF), protein thermal stability change; format: binding; conditions: SYPRO orange
T1 construct: alpha-crystallin core domain (ACD) of cryAB protein (residues 68-153)
T1 sequence (P02511 68-153): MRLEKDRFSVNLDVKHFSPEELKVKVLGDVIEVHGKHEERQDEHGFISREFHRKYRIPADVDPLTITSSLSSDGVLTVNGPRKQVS
Experimental: 2.4 μL of 10 mM compound stocks in DMSO were added to the wells of a 96-well plate containing 51.6 μL of 7 μM recombinant alpha-crystallin core domain (ACD) of cryAB protein (residues 68-153) in DSF buffer (50 mM Tris-HCl, 100 mM NaCl, 0.5 mM ZnCl2, 0.5 mM MgCl2, 0.5 mM CaCl2, pH8.0), and subsequently 6 μL 10× SYPRO orange protein gel stain (Invitrogen) was added for a final volume of 60 μL per well. Each well was mixed, and then 10 μL was added in quadruplicates to a MicroAmp Optical 384-well reaction plate with barcode (ThermoFisher). The plate was sealed with a MicroAmp Optical adhesive film (ThermoFisher), centrifuged at 1,000×g for 2 min, and loaded into a QuantStudio 6 Flex real-time PCR system (Applied Biosystems). The DSF assay was performed by heating the plate from 30° C. to 80° C. with 0.5° C. increments per cycle over 100 cycles. Each cycle was held for 90 s after reaching the temperature, and the fluorescent signal (520 nm excitation/558 nm emission) was measured.
The data curve was fitted using a Boltzmann model (GraphPad Prism Version 7) for a fitting range from 25° C. to the temperature at which the fluorescence signal was highest plus 3-5° C. The Tm was determined to be the temperature at the midpoint between the highest and lowest fluorescent signals on the curve. Results of the assay for compounds 1.18, 1.21 and 1.25 are in the following table and FIG. 1.

[2] = Chemical stability in PBS buffer; format: physicochemical
Experimental: 10 mM compound working solutions were made by adding 10 μL of a 50 mM DMSO stock solution in 40 μL methanol. To make 20 μM compound working solutions, 1 μL of a 10 mM stock solution is added to 499 μL of methanol. Internal standard and quenching solutions were prepared by dissolving 1 mg/mL of terfenadine or tolbutamide in appropriate amounts of DMSO. A quenching solution was prepared containing 25 ng/ml terfenadine plus 50 ng/ml tolbutamide by diluting both stock solutions together in a 1:1 mixture of methanol:acetonitrile. Phosphate buffered saline (PBS) solutions at pH5 and pH7 were prepared by adjusting the pH of stock PBS with concentrated hydrochloric acid. To tubes labeled with a pre-determined time point (0, 5, 15, 30, 60, 120 min) was added 2 μL of 20 μM compound working solution. In each tube, 38 μL of PBS buffer was added to the vial, vortexed, and incubated at 37° C. for the corresponding time. After incubation, 300 μL of the quenching solution containing internal standard was added to the tube and vortexed to mix. The sample was centrifuged at 4000 rpm for 15 min, and 100 μL of supernatant transferred to a 0.65 ml tube for LC/MS analysis. Each compound and timepoint was analyzed by reverse phase HPLC with MS detection performed using a Sciex API 4500 Qtrap.

[3] = Plasma stability (rabbit); format: in vitro ADME; conditions: 37° C., read-out: Plasma stability (rabbit) t ½
Experimental: (§1) A 4 mM compound stock solution was prepared by dissolving the appropriate amount of compound in MeOH, then a […] was prepared by adding 2 μL aforementioned 4 mM stock solution in 78 μL DMSO. A 10 mM control stock solution was prepared by dissolving the appropriate amount of tetracaine in DMSO, then a 10 μM control working solution was prepared by diluting the stock in DMSO. A 1 mg/ml terfenadine mixed with 2 mg/mL tolbutamide stock solution was prepared by dissolving an appropriate amount of each in DMSO, then a 1 ng/mL terfenadine mixed with 2 ng/mL tolbutamide internal standard solution was prepared by diluting the stock solution in methanol:acetonitrile (1:1, v/v). Both stock and internal standard solutions were stored at 4° C. Whole blood was centrifuged (obtained from in life group or donors) at 4000 rpm at 4° C. for 15 min to obtain plasma. Plasma was stored at −80° C. for future use. Before use, plasma was pre-warmed at 37° C. in a water bath for 15 min (500 μL per compound or control). After warming, 5 μL compound or control was added into 495 μL plasma, then vortexed to mix. […] The MS detection was performed using a Sciex API 4000 Qtrap and 6500 Plus instrument, and each compound was analyzed by reverse phase HPLC.

Plasma stability (human) = format: in vitro ADME; conditions: 37° C., read-out: Plasma stability (human) t ½
Experimental: as §1

[4] = Solubility remark in amyloid disaggregation assay; format: physicochemical; conditions: assay solution, 5% DMSO
Experimental: The procedure used to evaluate disassembly of amyloids in ex vivo cataractous solutions was adapted from Chemerovski-Glikman et al., Scientific Reports 8, Article number: 9341 (2018). Nuclear and cortical lens tissue from human donors (92F, 96M) was homogenized in PBS with protease inhibitor for 60 seconds on ice. The protein concentration of the lysate was measured by Bicinchoninic Acid Assay (Pierce BCA Protein Assay Kit, ThermoFisher), and then the lysate was diluted to a total protein concentration of 0.075 mg/mL. Thioflavin T dye (Sigma-Aldrich) was added to a final concentration of 1 μM. […] After incubation with orbital shaking at 37° C., the fluorescence was read every two hours for 94 hours at an excitation wavelength of 440 nm and emission wavelength of 485 nm. Results of the assay for compounds 1.18, 1.21, 1.25 or control are in FIG. 3.

[5] = in water; cited from earlier work
[6] = PBS pH 5, 37° C., read-out: Chem stability (t ½ @ pH = 5)
[7] = PBS pH 7, 37° C., read-out: Chem stability (t ½ @ pH = 7)

SMILES	Δ Tm (° C.) Mean (n = 2) [1]	half-life at 1 µM [2, 6]	half-life at 1 µM [2, 7]	half-life at 0.1 µM [3]	half-life at 0.1 µM (Plasma stability (human))	solubility (in words) [4]	aqueous solubility [5]
C[C@H](CCCC(C)(C)O)[C@H]1CC[C@H]2[C@@H]3CC=C4C[C@@H](OC(=O)CCC(=O)O)CC[C@]4(C)[C@H]3CC[C@]12C [Compound 1.18]	−5.7 °C	> 8.33 h	> 8.33 h	> 8.33 h	> 8.33 h	limited solubility	–
C[C@H](CCCC(C)(C)O)[C@H]1CC[C@H]2[C@@H]3CC=C4C[C@@H](OC(=O)CC[C@H](N)C(=O)O)CC[C@]4(C)[C@H]3CC[C@]12C [Compound 1.21]	−1.7 °C	–	–	–	–	–	–
C[C@H](CCCC(C)(C)O)[C@H]1CC[C@H]2[C@@H]3CC=C4C[C@@H](OC(=O)OCC[N+](C)(C)C)CC[C@]4(C)[C@H]3CC[C@]12C.[I-] [Compound 1.25]	−1.8 °C	> 8.33 h	> 8.33 h	> 8.33 h	> 8.33 h	–	–
CC(C)CCC[C@@H](C)[C@H]1CC[C@H]2[C@@H]3CC=C4C[C@@H](O)CC[C@]4(C)[C@H]3CC[C@]12C [cholesterol]	–	–	–	–	–	–	less than 0.5 mg/100 mL
